The assay concerns the target human Nav1.8 (Homo sapiens, UniProt Q9Y5Y9). The assay is described as follows: whole-cell manual patch clamp dose-response, […] °C. It is filed as cell-based. Background: Patch clamp records ionic current or voltage across a cell membrane.

Sequence of human Nav1.8 (Q9Y5Y9 whole entry): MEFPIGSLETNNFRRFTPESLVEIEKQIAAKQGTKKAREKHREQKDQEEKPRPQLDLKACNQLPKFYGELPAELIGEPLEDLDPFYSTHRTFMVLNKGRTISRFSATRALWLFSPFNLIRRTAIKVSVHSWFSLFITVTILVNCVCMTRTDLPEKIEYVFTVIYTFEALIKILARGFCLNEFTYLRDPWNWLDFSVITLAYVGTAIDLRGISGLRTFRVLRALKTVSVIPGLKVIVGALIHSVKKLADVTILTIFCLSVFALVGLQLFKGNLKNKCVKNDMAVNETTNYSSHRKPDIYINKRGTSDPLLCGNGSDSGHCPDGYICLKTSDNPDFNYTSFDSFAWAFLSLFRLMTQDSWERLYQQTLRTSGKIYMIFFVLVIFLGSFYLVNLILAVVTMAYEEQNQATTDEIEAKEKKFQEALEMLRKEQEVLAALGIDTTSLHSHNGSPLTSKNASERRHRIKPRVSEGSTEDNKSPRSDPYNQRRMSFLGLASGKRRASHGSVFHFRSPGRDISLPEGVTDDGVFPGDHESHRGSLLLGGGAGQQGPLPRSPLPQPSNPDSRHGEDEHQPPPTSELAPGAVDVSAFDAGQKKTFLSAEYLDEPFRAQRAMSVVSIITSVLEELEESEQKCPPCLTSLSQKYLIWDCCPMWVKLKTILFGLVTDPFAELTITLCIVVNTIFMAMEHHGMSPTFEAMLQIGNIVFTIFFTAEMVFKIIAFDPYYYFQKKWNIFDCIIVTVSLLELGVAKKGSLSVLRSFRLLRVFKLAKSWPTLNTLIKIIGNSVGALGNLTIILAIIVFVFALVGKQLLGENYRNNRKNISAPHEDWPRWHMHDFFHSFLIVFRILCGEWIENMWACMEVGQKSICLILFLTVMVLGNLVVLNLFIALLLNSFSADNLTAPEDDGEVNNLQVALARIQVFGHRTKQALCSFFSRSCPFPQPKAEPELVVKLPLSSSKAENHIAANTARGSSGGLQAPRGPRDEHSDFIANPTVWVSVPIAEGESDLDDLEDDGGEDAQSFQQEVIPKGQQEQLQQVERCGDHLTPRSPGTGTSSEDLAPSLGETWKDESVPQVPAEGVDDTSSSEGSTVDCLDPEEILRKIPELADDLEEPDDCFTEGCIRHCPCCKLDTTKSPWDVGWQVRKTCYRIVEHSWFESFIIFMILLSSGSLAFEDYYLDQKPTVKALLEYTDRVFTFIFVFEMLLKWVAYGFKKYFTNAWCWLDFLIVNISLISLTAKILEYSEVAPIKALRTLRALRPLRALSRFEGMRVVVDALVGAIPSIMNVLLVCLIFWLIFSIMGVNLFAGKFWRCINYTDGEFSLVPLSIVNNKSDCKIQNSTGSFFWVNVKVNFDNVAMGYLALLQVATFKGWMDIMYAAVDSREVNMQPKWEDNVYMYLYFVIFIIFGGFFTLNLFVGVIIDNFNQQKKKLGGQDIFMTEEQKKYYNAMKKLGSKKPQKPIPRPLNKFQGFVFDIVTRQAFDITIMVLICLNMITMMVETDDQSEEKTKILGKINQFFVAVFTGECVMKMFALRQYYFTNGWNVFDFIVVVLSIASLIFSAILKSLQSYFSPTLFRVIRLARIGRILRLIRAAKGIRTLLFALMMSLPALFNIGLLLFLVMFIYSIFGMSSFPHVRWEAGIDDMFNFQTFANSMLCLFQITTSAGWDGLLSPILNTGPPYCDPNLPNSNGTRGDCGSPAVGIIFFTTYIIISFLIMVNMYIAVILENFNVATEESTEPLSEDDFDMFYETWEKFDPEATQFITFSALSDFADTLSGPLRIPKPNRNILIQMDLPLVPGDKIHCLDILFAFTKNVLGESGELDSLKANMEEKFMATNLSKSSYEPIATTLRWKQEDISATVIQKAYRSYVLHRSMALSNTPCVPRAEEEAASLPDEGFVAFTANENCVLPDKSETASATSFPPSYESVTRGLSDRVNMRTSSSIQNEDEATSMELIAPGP
Sequence of human Nav1.8 (Q9NY72 23-215 partner): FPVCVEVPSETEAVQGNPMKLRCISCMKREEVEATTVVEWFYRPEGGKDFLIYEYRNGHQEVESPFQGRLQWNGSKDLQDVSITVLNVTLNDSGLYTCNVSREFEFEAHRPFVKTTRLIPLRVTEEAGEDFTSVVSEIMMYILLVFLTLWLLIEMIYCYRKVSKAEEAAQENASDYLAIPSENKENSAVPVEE

A word on the Kd: it is the concentration at which binding is half-saturated. A high value points to weaker binding. In turn, `COc1c([C@H]2[C@H](C(=O)Nc3ccnc(C(N)=O)c3)O[C@@](C)(C(F)(F)F)[C@H]2C)ccc(F)c1F` [VX-548] returned a Kd of 0.072 nM.

For the origin of these results see PMC12146708 (Proceedings of the National Academy of Sciences of the …, 2025).
